{
  "source": "paper PMC10334471",
  "about": "“Tumor-targeted dual-action NSAID-platinum(IV) anticancer prodrugs” (Inorganic Chemistry Frontiers, 2023)",
  "key": {"CT26 allografts [1]": {"system": "CT26 allografts", "assay_type": "in vivo", "details": "oxaliplatin 9 mg kg^−1 i.v.", "method": "(§1) All experiments were executed according to the regulation of the Ethics Committee for the Care and Use of Laboratory Animals at the Medical University Vienna. 8–12 weeks old BALB/c were kept in a pathogen-free environment with a 12 h light dark-cycle with ad libitum access to food and water. Every procedure was performed in a laminar airflow under sterile condition. Tumor growth and possible side effects of drug treatment were evaluated by daily recording the tumor size by caliper measurement according to the formula length × width^2/2 and parameters of the animal's overall health conditions.\n(§2) CT26 cells (5 × 10^5 cells in 50 μl serum-free medium) were injected s.c. into the right flank of female BALB/c mice. […] Asa was treated orally using 50 mg kg^−1 in 5% DMSO/0.9% NaCl. Every day, the animals were monitored for the overall health conditions. Additionally, tumor size was measured. In case of a decreased body weight of ∼20% or ulcerated tumors, animals were sacrificed by cervical dislocation and tumors as well as organs were collected."}, "CT26 (murine)": {"system": "CT26 (murine)", "assay": "MTT assay, 72 h, CT26", "assay_type": "cell-based", "details": "72 h treatment, mean ± SD", "method": "(§3) All cell cultures were grown at 37 °C in a humidified atmosphere containing 5% CO2. HCT116, RKO and HT-29 cells were cultured in McCoy's 5A Modified Media (Sigma-Aldrich, St. Louis, MO, USA) supplemented with 10% heat-inactivated fetal calf serum (FCS, PAA, Linz, Austria) and 2 mM glutamine (Sigma-Aldrich, St. Louis, MO, USA). The murine (Balb/c) colon cancer cell model CT26 (purchased from American Type Culture Collection, Manassas, VA, USA) were cultured in DMEM/F12 supplemented with 10% fetal calf serum (FCS). SW480 and Caco-2 cells were cultured in MEME media supplemented with 10% and 20% FCS, respectively. All cell culture media and reagents were purchased from Sigma-Aldrich Austria. […] The cells were regularly checked for Mycoplasma contamination.\n(§4) Depending on their proliferation rate, cells were seeded at a density of 3500–5000 cells per well in 96-well microtiter plates and allowed to adhere overnight. […] Cell viability was determined using the 3-(4,5-dimethylthiazol-2-yl)-2,5-diphenyltetrazolium bromide (MTT) assay (EZ4U, Biomedia, Vienna, Austria) according to the manufacturer's recommendation. Depending on the metabolic capacity, the cell lines were incubated between one and three hours at 37 °C and subsequently absorbance was measured at 450 nm (620 nm as a reference) with a Tecan Reader infinite® M200Pro (Tecan Group Ltd, Switzerland). Data were analyzed using Graph Pad prism (version 8.0.1) by using the point-to-point function. […] Following, dose–response curves were calculated using the point-to-point function."}, "HT-29": {"system": "HT-29", "assay": "MTT assay, 72 h, HT-29", "assay_type": "cell-based", "details": "for IC50: HT-29, MTT, 72 h treatment, mean ± SD", "method": "as §3, §4"}, "HCT116/OxR": {"system": "HCT116/OxR", "assay": "MTT assay, 72 h, HCT116/OxR (oxaliplatin-resistant)", "assay_type": "cell-based", "details": "72 h treatment, mean ± SD", "method": "as §3, §4"}, "CT26 allografts [2]": {"system": "CT26 allografts", "parameters": "method as in not given", "details": "reported MTD; ref not given; cited from earlier work"}, "SW480": {"system": "SW480", "assay": "MTT assay, 72 h, SW480", "assay_type": "cell-based", "details": "72 h treatment, mean ± SD", "method": "as §3, §4"}, "RKO": {"system": "RKO", "assay": "MTT assay, 72 h, RKO", "assay_type": "cell-based", "details": "72 h treatment, mean ± SD", "method": "as §3, §4"}, "HCT116": {"system": "HCT116", "assay": "MTT assay, 72 h, HCT116", "assay_type": "cell-based", "details": "72 h treatment, mean ± SD", "method": "as §3, §4"}, "[3]": {"assay": "Preliminary oral tolerability experiments in tumor-free mice", "assay_type": "in vivo", "details": "52.8 mg kg^−1 p.o.", "text": "It is well known that COX-2 is involved in the paracrine signaling between immune cells, resulting in a pro-tumorigenic tumor microenvironment.[10,33] Consequently, we got interested in the impact of the Asa ligand on the anticancer activity of the drugs in vivo. Therefore, we chose immune-competent murine colon cancer CT26 allografts as test system, which were characterized by high COX-2 expression (Fig. S4 ^†). […] Thus, the experiment was stopped on day 19 due to a distinct drop in body weight in these animals. As Asa is clinically applied p.o., we tested the efficacy of OxAsaOAc and asplatin in an oral application setting. […] For the therapy experiment, the animals were treated with OxAsaOAc and asplatin for five subsequent days over two weeks. […] Consequently, we concluded that the drug doses reaching the tumor in these therapy settings were insufficient, which prompted us to aim for carrier systems with enhanced tumor-targeting properties."}, "[4]": {"assay": "Released salicylic acid in serum of mice after single i.v. administration (UHPLC-MS)", "details": "for Free salicylic acid in serum, share of administered dose: tumor-free Balb/c mice", "method": "After 10 min, 1 h and 24 h blood was collected via the facial vein. Serum was isolated by centrifugation at 900 g for 10 min for two times and stored at −80 °C. Platinum content was detected by ICP-MS measurements, using an Agilent 7800 (Agilent Technologies, Tokyo, Japan) equipped with an Agilent SPS 4 autosampler (Agilent Technologies, Tokyo, Japan) and a MicroMist nebulizer. The Agilent MassHunter software package (Workstation Software, Version C.01.04, 2018) was used for data evaluation. The ICP-MS operation parameters are given in Table S1. ^† Salicylic acid was extracted and detected as described above."}, "[5]": {"assay": "Reduction kinetics with 10 eq. ascorbic acid (UHPLC)", "assay_type": "physicochemical", "details": "1 mM, 250 mM phosphate buffer pH 7.4, 20 °C, 10 eq. ascorbic acid", "method": "(§5) Phosphate buffer (250 mM, pH 7.4) containing 1 mM platinum compound was incubated at 20 °C, with and without the addition of 10 eq. L-ascorbic acid. […] A gradient of 5–95% over 5 minutes was used. To evaluate the current state of the reaction, the peak area of the parental complex was used."}, "[6]": {"system": "colorectal cancer cell line panel", "assay": "MTT assays, 72 h, whole panel comparison", "assay_type": "cell-based", "details": "in most cell lines of the panel", "method": "All cell cultures were grown at 37 °C in a humidified atmosphere containing 5% CO2. HCT116, RKO and HT-29 cells were cultured in McCoy's 5A Modified Media (Sigma-Aldrich, St. Louis, MO, USA) supplemented with 10% heat-inactivated fetal calf serum (FCS, PAA, Linz, Austria) and 2 mM glutamine (Sigma-Aldrich, St. Louis, MO, USA). The murine (Balb/c) colon cancer cell model CT26 (purchased from American Type Culture Collection, Manassas, VA, USA) were cultured in DMEM/F12 supplemented with 10% fetal calf serum (FCS). SW480 and Caco-2 cells were cultured in MEME media supplemented with 10% and 20% FCS, respectively. All cell culture media and reagents were purchased from Sigma-Aldrich Austria. […]\nDepending on their proliferation rate, cells were seeded at a density of 3500–5000 cells per well in 96-well microtiter plates and allowed to adhere overnight. […] Cell viability was determined using the 3-(4,5-dimethylthiazol-2-yl)-2,5-diphenyltetrazolium bromide (MTT) assay (EZ4U, Biomedia, Vienna, Austria) according to the manufacturer's recommendation. Depending on the metabolic capacity, the cell lines were incubated between one and three hours at 37 °C and subsequently absorbance was measured at 450 nm (620 nm as a reference) with a Tecan Reader infinite® M200Pro (Tecan Group Ltd, Switzerland). Data were analyzed using Graph Pad prism (version 8.0.1) by using the point-to-point function. […]"}, "[7]": {"assay": "Stability in aqueous buffer pH 7.4 (HPLC)", "assay_type": "physicochemical", "details": "1 mM, 250 mM phosphate buffer pH 7.4, 20 °C, 25 h, HPLC", "method": "as §5"}, "CT26 allografts [8]": {"system": "CT26 allografts", "assay": "Anticancer activity i.v. in CT26-bearing mice", "assay_type": "in vivo, Balb/c mice", "details": "i.v., 4-times over 2 weeks, doses equimolar to 9 mg kg^−1 oxaliplatin", "method": "as §1, §2"}, "CT26 allografts [9]": {"system": "CT26 allografts", "assay": "Oral anticancer activity in CT26 allografts", "assay_type": "in vivo, Balb/c mice", "details": "OxAsaOAc 52.8 mg kg^−1 p.o., five subsequent days over two weeks", "method": "It is well known that COX-2 is involved in the paracrine signaling between immune cells, resulting in a pro-tumorigenic tumor microenvironment.[10,33] Consequently, we got interested in the impact of the Asa ligand on the anticancer activity of the drugs in vivo. […] As Asa is clinically applied p.o., we tested the efficacy of OxAsaOAc and asplatin in an oral application setting. […] For the therapy experiment, the animals were treated with OxAsaOAc and asplatin for five subsequent days over two weeks.\nas §1"}, "Caco-2": {"system": "Caco-2", "assay": "MTT assay, 72 h, Caco-2", "assay_type": "cell-based", "details": "Caco-2, MTT, 72 h treatment, mean ± SD", "method": "as §3, §4"}, "albumin": {"molecular_target": "T1, albumin (Bos taurus, UniProt P02769)", "T1 construct": "Fetal calf serum was purchased from Sigma-Aldrich and buffered with 150 mM phosphate pH 7.4; tissue Sigma-Aldrich; host or cells: fetal calf serum", "T1 sequence (P02769 25-607)": "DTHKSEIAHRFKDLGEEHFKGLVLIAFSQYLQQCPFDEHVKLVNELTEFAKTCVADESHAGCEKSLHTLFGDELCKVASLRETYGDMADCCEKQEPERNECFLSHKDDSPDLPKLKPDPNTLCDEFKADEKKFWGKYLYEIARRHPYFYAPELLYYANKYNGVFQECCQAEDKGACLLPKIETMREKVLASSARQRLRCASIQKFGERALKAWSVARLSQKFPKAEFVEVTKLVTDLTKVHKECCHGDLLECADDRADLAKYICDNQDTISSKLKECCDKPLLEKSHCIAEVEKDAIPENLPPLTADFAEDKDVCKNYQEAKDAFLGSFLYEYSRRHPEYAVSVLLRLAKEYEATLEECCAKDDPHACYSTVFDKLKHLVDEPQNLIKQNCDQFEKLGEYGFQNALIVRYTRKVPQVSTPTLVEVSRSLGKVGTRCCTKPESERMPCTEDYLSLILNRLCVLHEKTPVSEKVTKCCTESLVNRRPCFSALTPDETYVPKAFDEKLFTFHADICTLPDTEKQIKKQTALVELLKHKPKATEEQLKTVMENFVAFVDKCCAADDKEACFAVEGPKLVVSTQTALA", "assay": "Albumin binding in fetal calf serum by SEC-ICP-MS", "assay_type": "in vitro ADME", "details": "100 μM in FCS (150 mM phosphate buffer, pH 7.4), 37 °C, up to 6 h", "method": "Fetal calf serum was purchased from Sigma-Aldrich and buffered with 150 mM phosphate pH 7.4 in order to guarantee a stable pH. The platinum(IV) complexes (5 mM) were dissolved in 150 mM phosphate buffer (pH 7.4) and diluted 1 : 50 in the buffered serum to obtain a final concentration of 100 μM. The samples were then incubated in the autosampler at 37 °C and analyzed every 1 h for 6 h. Between each sample a pure water blank was measured. For SEC-ICP-MS measurements an Agilent 1260 Infinity system coupled to an Agilent 7800 ICP-MS equipped with a dynamic reaction cell was used. Oxygen (purity 5.5, Messer Austria GmbH, Gumpoldskirchen, Austria) was used as reaction gas."}},
  "data": [
    {"molecule": "O=C1[O][Pt]2([NH][C@@H]3CCCC[C@H]3[NH]2)[O]C1=O", "note": "[Oxaliplatin, oxaliplatin]", "values": [
      {"measurement": "Response of tumor model (tumor growth)", "setting": "CT26 allografts [1]", "result": "responsiveness"},
      {"measurement": "IC50", "setting": "CT26 (murine)", "result": "1.8 ± 0.2", "unit": "µM"},
      {"measurement": "IC50", "setting": "HT-29", "result": "5.3 ± 1.2", "unit": "µM"},
      {"measurement": "IC50", "setting": "HCT116/OxR", "result": "27.8 ± 5.2", "unit": "µM"},
      {"measurement": "MTD", "setting": "CT26 allografts [2]", "result": 9, "unit": "mg/kg"},
      {"measurement": "IC50", "setting": "SW480", "result": "1 ± 0.2", "unit": "µM"},
      {"measurement": "IC50", "setting": "RKO", "result": "0.4 ± 0.04", "unit": "µM"},
      {"measurement": "IC50", "setting": "HCT116", "result": "0.8 ± 0.1", "unit": "µM"}
    ]},
    {"molecule": "CC(=O)Oc1ccccc1C(=O)[O][Pt-2]12([O]C(C)=O)([NH2+][C@@H]3CCCC[C@H]3[NH2+]1)[O]C(=O)C(=O)[O]2", "note": "[OxAsaOAc, (OC-6-44)-acetato(2-acetoxybenzoato)[(1R,2R)-1,2-cyclohexanediamino]oxalatoplatinum(IV)]", "values": [
      {"measurement": "Tolerability", "setting": "[3]", "result": "well tolerable"},
      {"measurement": "Free salicylic acid in serum, share of administered dose", "setting": "[4]; 10 min after single i.v. dose equimolar to 9 mg kg^−1 oxaliplatin", "result": "< 5", "unit": "mol%"},
      {"measurement": "Free salicylic acid in serum, share of administered dose", "setting": "[4]; 1 h after single i.v. dose equimolar to 9 mg kg^−1 oxaliplatin", "result": "< 5", "unit": "mol%"},
      {"measurement": "Salicylic acid level in serum", "setting": "[4]; 24 h after single i.v. dose equimolar to 9 mg kg^−1 oxaliplatin, below LOD", "result": "< 3", "unit": "µM"},
      {"measurement": "IC50", "setting": "CT26 (murine)", "result": "12.8 ± 0.8", "unit": "µM"},
      {"measurement": "Intact complex after 6 h", "setting": "[5]; 6 h", "result": 92, "unit": "%"},
      {"measurement": "Intact complex after 24 h", "setting": "[5]; 24 h", "result": 53, "unit": "%"},
      {"measurement": "Fold more active than Ox(OAc)2", "setting": "[6]", "result": "about 2 fold"},
      {"measurement": "Fold higher activity than Ox(OAc)2", "setting": "HT-29; HT29 cells", "result": 4, "unit": "fold"},
      {"measurement": "IC50", "setting": "HT-29", "result": "32.7 ± 5.5", "unit": "µM"},
      {"measurement": "Stability in aqueous solution", "setting": "[7]", "result": "high stability"},
      {"measurement": "IC50", "setting": "HCT116/OxR", "result": "42.8 ± 4.3", "unit": "µM"},
      {"measurement": "Tolerability (body weight)", "setting": "CT26 allografts [8]", "result": "well tolerated"},
      {"measurement": "Anticancer activity (tumor growth, overall survival)", "setting": "CT26 allografts [8]; CT26", "result": "significant impact on both tumor growth as well as overall survival"},
      {"measurement": "IC50", "setting": "SW480", "result": "11.2 ± 1.3", "unit": "µM"},
      {"measurement": "Impact on tumor growth", "setting": "CT26 allografts [9]", "result": "none of the drugs had any impact on tumor growth"},
      {"measurement": "IC50", "setting": "RKO", "result": "4.3 ± 0.4", "unit": "µM"},
      {"measurement": "IC50", "setting": "Caco-2", "result": "17.9 ± 2.1", "unit": "µM"},
      {"measurement": "IC50", "setting": "HCT116", "result": "9.9 ± 1.5", "unit": "µM"},
      {"measurement": "Binding to albumin (or any other protein)", "setting": "albumin", "result": "< 5", "unit": "%"}
    ]}
  ]
}
